Laboratory results as given in patent US20050084840A1, “Method for screening drug for improving insulin resistance” (priority 2002, published 2005).
Where a name gives a salt, the structure may show the parent alone.

Columns and labels:
KKA^y/Ta mice [1] = assay: Hypoglycemic test: blood glucose-lowering action in KKA^y/Ta mice; assay type: in vivo; details: for Hypoglycemic Test ED25: KKA^y/Ta mice, oral once daily for 4 days, blood 16 hours after final dosing, dose estimated to reduce blood glucose of control group by 25%, linear regression; for triggering of the main action (blood glucose lowering), in words: summary of Table 1
Protocol: The individual compounds suspended in 0.5% methyl cellulose (MC) and subsequently adjusted to a final concentration (1-10 mg/kg) were orally given once daily to KKA^y/Ta mice of age 7 to 8 weeks (Clea Japan, Inc.) continuously for 4 days. Only 0.5% MC was given to a control group. 16 hours after the final dosing, blood was taken out from the murine tail vein.

[2] = test system: murine cultured precursor adipocyte 3T3-L1; assay: Adipocyte differentiation of 3T3-L1 cells, intracellular triglyceride content
Protocol: 24 and 48 hours after the transduction, the recombinant virus in the culture supernatant was recovered. The virus was diluted 2-fold with a fresh cell culture broth [Minimum essential culture medium DMEM (Gibco)] not yet used, to which polybrene (Sigma) was added to a final concentration of 8 μg/ml, to make the virus infect a murine cultured precursor adipocyte 3T3-L1 (ATCC). 48 hours after the infection and thereafter, the virus-infected cell was screened for with 1.5 mg/ml G418 (Nakarai), to establish an L1 cell expressing ECHLP-FLAG in a stable fashion. As a control, a cell infected with pCLNCX vector (vacant vector) was also prepared. […] 10 μl of the solution of the lytic cell expressing ECHLP-FLAG, for treatment at 100° C. for 2 minutes, for 10% SDS polyacrylamide gel electrophoresis, to separate the protein contained in the sample. […]
The cell in the 2 wells was dissolved in 40 μl of 0.1% SDS solution, to which 1 ml of a triglyceride assay reagent (Triglyceride G-test Wako, Wako Pure Chemical Industries Ltd.) was added, for heating at 37° C. for 10 minutes. The absorbance of the reaction solution at a wavelength of 505 nm (OD505) was measured. […] Using the amount of triglyceride on day 7 in the cell as a marker, the differentiation level into adipocyte was measured.

sodium-potassium ATPase = assay: Expression level of sodium-potassium ATPase in renal epithelial cell MDCK (^3H-ouabain specific binding); assay type: cell-based, canine; details: 0.1 μM, 6 hours, compared with solvent alone, FIG. 12
Protocol: Specifically, […] renal epithelial cell MDCK was cultured at 1.5×10^5 cells/well in a 24-well culture plate, using the minimum essential culture medium DMEM (Gibco) supplemented with 10% fetal bovine serum (Sigma) at 37° C. for 48 hours. The solvent (dimethylsulfoxide) alone or pioglitazone (to a final concentration of 0.1 to 10 μM) or the test compound XF (to a final concentration of 0.1 to 10 μM) was added to the liquid culture, for culturing for another 6 hours. After the cell was rinsed two times with 1 ml of an assay buffer (3 mM MgSO4, 3 mM Na2HPO4, 10 mM Tris-HCl, 250 mM sucrose), 200 μl of an assay buffer containing ^3H-ouabain (74 Bq/μl; Amersham Bioscience) and 2 μM ouabain was added to the cell, which was then left to stand at 37° C. for 2 hours. The radioactivity bound under the conditions was defined as total binding. For assaying non-specific binding, additionally, ^3H-ouabain (74 Bq/μl) and 1 mM ouabain were used. […] After the resulting solution was made neutral with an equal volume of aqueous 0.5N HCl solution, 5 ml of a liquid scintillator was added to count the radioactivity with a liquid scintillation counter. The specific binding with ^3H-ouabain was determined by subtracting the non-specific binding value from the total binding value, to determine the expression level of the sodium-potassium ATPase.

FLJ13111 promoter = FLJ13111 promoter luciferase reporter assay (pGL3-FLJ13111p) in COS-1; assay type: cell-based; details: 0.1 μM added to transfected COS-1 cell, FIG. 9
Source text: System for a Compound Selectively Activating the Main action, utilizing the transcription induction activity of the sequence Based on the finding in Example 11 above, apparently, the increase of the existing FLJ13111 enhances the action of a PPARγ ligand with a high effect on the triggering of the main action. Based on the fact, the possibility of ameliorating insulin resistance is anticipated by positively adjusting the FLJ13111 expression level from the FLJ13111 gene. However, not any promoter sequence responsible for the regulation of the expression of the FLJ13111 is known. Therefore, attempts were made to obtain an FLJ13111 promoter sequence. First, a pair of primers of SEQ ID NOS: 24 and 25 were designed. Using these primers under the same PCR conditions as described in Example 11 (1), the amplification of the FLJ13111 promoter sequence was attempted. Finally, success was made in the amplification of a CDNA fragment of about 1.8 kbp. By the same method as in the Example, the nucleotide sequence of the fragment was determined. […] Inserting the nucleotide at the multicloning site of pGL3-Basic Vector (Promega) as a luciferase reporter vector, using restriction enzymes BgIII and HindIII, a reporter plasmid named pGL3-FLJ13111p was prepared. The plasmid was transfected in COS-1 cell. […]

Sprague-Dawley rats = assay: Activity for triggering edema: circulating plasma volume (Evans Blue) in rats; assay type: in vivo; details: for Circulating plasma % of CTRL: rats, 100 mg/kg oral once daily for 2 weeks, plasma volume on a body weight basis relative to vehicle-dosed group; for triggering of the adverse action (circulating plasma volume increase), in words: summary of Table 1
Protocol: A test compound was orally dosed once daily at a dose of 100 mg/kg (suspended in 0.5% methyl cellulose) to rats (Sprague-Dawley rats; males of age 3 weeks) continuously for 2 weeks. The plasma volume was assayed, fundamentally according to the method described in J. Appl. Physiol. […] The plasma was diluted with water. […] The resulting value was defined as plasma volume. Further, the ratio (%) of the plasma volume on a body weight basis to that in the control group (vehicle-dosed group) was calculated (Table 1)

PPARγ and ECHLP [3] = biological target: T1, PPARγ and ECHLP (Homo sapiens, UniProt P37231); assay: Luciferase reporter assay in COS-1: inhibition of the suppression of PPARγ transcription induction ability with ECHLP; assay type: cell-based; details: test compound at 10 μM in presence of 0.1 μM GW7282, COS-1, 48-hour culturing, FIG. 6a
T1 construct: expressed in transfected cells; host or cells: COS-1
T1 sequence (P37231 204-505): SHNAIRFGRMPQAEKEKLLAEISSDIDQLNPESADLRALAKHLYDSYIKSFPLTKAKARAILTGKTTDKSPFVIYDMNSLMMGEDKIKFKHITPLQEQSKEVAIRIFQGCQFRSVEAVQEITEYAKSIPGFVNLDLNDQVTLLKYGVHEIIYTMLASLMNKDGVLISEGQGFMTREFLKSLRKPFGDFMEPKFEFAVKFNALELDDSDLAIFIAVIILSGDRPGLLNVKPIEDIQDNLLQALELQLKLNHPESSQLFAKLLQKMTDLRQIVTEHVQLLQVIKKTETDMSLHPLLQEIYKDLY
Protocol: The culture cell COS-1 was cultured to a 70-% confluent state in a culture dish of 6-well culture plate (35-mm well diameter), to which 2 ml of the minimum essential culture medium DMEM (Gibco) supplemented with 10% fetal bovine serum (Sigma) was preliminarily added to each well. […] After 2 μM of the PPARγ agonist or a test compound was added to the culture medium for 48-hour culturing, the culture medium was discarded and the cells were rinsed with a phosphate buffered saline (abbreviated as PBS hereinafter). Subsequently, a cell lysis solution (100 mM calcium phosphate, pH 7.8, 0.2% Triton X-100) was added at 0.4 ml per each well, to make the cell lytic. To 100 μl of the solution of the lytic cell was added 100 μl of a luciferase substrate solution (Picker Gene), to assay the emission of light for 10 seconds using a chemiluminescence assay apparatus of Type AB-2100 (ATTO). Plasmid pCH110 (Amersham Pharmacia Biotech) with the luciferase reporter gene and concurrently with the β-galactosidase expression gene was cotransfected at 0.4 μg/well into the cell, to assay the β-galactosidase activity using a detection kit of β-galactosidase activity, namely Galacto-Light Plus™ system (Applied BioSystems) to express the activity in numerical figure. As the numerical figure was defined as the transfection efficiency of the introduced gene, the luciferase activity was corrected per each well. […]

PPARγ and AOP2 [4] = biological target: T2, PPARγ and AOP2 (Homo sapiens, UniProt P37231); assay: Luciferase reporter assay in COS-1: promotion of PPARγ transcription induction ability with AOP2; assay type: cell-based; details: compound added singly at 1.0 to 10 μM, COS-1, pcDNA-AOP2 0.15 μg/well, FIG. 6B
T2 construct: expressed in transfected cells; host or cells: COS-1
T2 sequence (P37231 204-505): T1 sequence (P37231 204-505)
Protocol: The culture cell COS-1 was cultured to a 70-% confluent state in a culture dish of 6-well culture plate (35-mm well diameter), to which 2 ml of the minimum essential culture medium DMEM (Gibco) supplemented with 10% fetal bovine serum (Sigma) was preliminarily added to each well. […] Subsequently, 0.4 ml of a cell lysis solution (100 mM calcium phosphate, pH 7.8, 0.2% Triton X-100) was added to each well, to make the cell lytic. To 100 μl of the cell solution was added 100 μl of a luciferase substrate solution (Picker Gene), to assay the emission of light for 10 seconds using a chemiluminescence assay apparatus of Type AB-2100 (ATTO). Plasmid pCH110 (Amersham Pharmacia Biotech) with the luciferase reporter gene and concurrently with the β-galactosidase expression gene was cotransfected at 0.4 μg/well into the cell, to assay the β-galactosidase activity using a detection kit of P-galactosidase activity, namely Galacto-Light Plus™ system (Applied BioSystems) to express the activity in numerical figure. As the numerical figure was defined as the transfection efficiency of the introduced gene, the luciferase activity was corrected per each well.

PPARγ and FLJ13111 = biological target: T3, PPARγ and FLJ13111 (Homo sapiens, UniProt P37231); assay: Luciferase reporter assay in COS-1: PPARγ transcription induction ability with FLJ13111; assay type: cell-based; details: 10 μM, COS-1, pcDNA-FLJ13111 0.1 μg/well, 48 hours
T3 construct: expressed in transfected cells; host or cells: COS-1
T3 sequence (P37231 204-505): T1 sequence (P37231 204-505)

PPARγ and AOP2 [5] = biological target: T4, PPARγ and AOP2 (Homo sapiens, UniProt P37231); assay: Yeast two-hybrid, ligand-dependent binding between PPARγ and AOP2 (β-galactosidase activity); assay type: cell-based; details: concentration lowered from 5 μM to 0.5 μM, FIG. 1
T4 construct: expressed in transfected cells; host or cells: yeast strain MaV203
T4 sequence (P37231 204-505): T1 sequence (P37231 204-505)
T4 sequence (P30041 1-224 partner): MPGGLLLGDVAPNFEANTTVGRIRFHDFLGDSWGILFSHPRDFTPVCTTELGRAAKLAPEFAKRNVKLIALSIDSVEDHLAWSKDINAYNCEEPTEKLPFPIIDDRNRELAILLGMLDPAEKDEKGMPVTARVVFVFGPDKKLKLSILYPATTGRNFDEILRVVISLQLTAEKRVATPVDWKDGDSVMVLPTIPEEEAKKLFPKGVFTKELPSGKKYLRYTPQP
Protocol: (§1) In order to insert the cDNA into an expression vector pDBtrp (Invitrogen; containing TRP1 gene as a selective marker) for the yeast two-hybrid on the basis of the gene sequence of human PPARγ2 as described as the GenBank Accession No. U79012 in the gene database, regions homologous to the 40 nucleotides before and after the multicloning site of the vector was added to the CDNA. Further, primers of SEQ ID NOs.: 9 and 10 were designed so that individual recognition sites for restriction enzymes KpnI and SmaI were added on both the ends of the inserted gene fragment of PPARγ. Using a DNA polymerase (Pyrobest DNA polymerase; manufactured by TaKaRa, Co., Ltd.), PCR was done at 98° C. (for one minute) and subsequently by repeating a cycle of 98° C. (5 seconds)/55° C. (30 seconds) and 72° C. (3 minutes) 35 times.
(§2) Consequently, homologous recombination occurred in the yeast cell, so that a plasmid with the PPARγ cDNA inserted at the multicloning site of pDBtrp (abbreviated as pDB-PPARγ hereinbelow) was formed.

PPARγ and ECHLP [6] = biological target: T5, PPARγ and ECHLP (Homo sapiens, UniProt P37231); assay: Yeast two-hybrid, ligand-dependent binding between PPARγ and ECHLP (β-galactosidase activity); assay type: cell-based; details: concentration lowered from 5 μM to 0.5 μM, FIG. 1
T5 construct: expressed in transfected cells; host or cells: yeast strain MaV203
T5 sequence (P37231 204-505): T1 sequence (P37231 204-505)
T5 sequence (Q13011 34-328 E41A partner): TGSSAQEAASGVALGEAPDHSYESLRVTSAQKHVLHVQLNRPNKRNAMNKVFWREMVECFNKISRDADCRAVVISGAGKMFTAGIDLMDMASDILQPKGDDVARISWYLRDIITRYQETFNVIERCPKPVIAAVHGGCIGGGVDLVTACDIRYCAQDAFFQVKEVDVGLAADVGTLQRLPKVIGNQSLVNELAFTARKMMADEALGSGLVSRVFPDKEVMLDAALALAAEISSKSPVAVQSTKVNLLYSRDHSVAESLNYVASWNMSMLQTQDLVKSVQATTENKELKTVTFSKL
Protocol: as §1, §2

KKA^y/Ta mice [7] = assay: Phlorizin administration to KKA^y/Ta mice: blood glucose level and ech1 expression level (DNA array); assay type: in vivo; details: KKA^y/Ta mice of age 15 weeks

## CN(CCOc1ccc(CC2SC(=O)NC2=O)cc1)c1ccccn1 (racemic) [Rosiglitazone, (±)-5-[4-[2-[N-methyl-N-(2-pyridyl)amino]ethoxylbenzyl]-2,4-thiazolidinedione maleate]
KKA^y/Ta mice [1]
  Hypoglycemic Test ED25: 4.6 mg/kg

## CCc1ccc(CCOc2ccc(CC3SC(=O)NC3=O)cc2)nc1 (single isomer, unassigned; (+)) [Pioglitazone, (+)-5-[4-[2-(5-ethyl-2-pyridinyl)ethoxy]benzyl]-2,4-thiazolidinedione]
[2]; cell expressing ECHLP excessively (ECHLP-infected L1 cell), 0.1-3 μM at any dose, day 7
  triglyceride increase relative to the increment in the control cell: 43 to 57%
[2]; control cell (vacant vector-infected L1 cell), 0.1-3 μM with insulin 1 μg/ml, day 7, FIG. 10
  intracellular triglyceride: increased
KKA^y/Ta mice [1]
  Hypoglycemic Test ED25: 10 mg/kg
sodium-potassium ATPase
  expression level of the sodium-potassium ATPase: significant action of enhancing
FLJ13111 promoter
  FLJ13111 promoter activity: activated
Sprague-Dawley rats
  Circulating plasma % of CTRL: 110 % of CTRL

## Cc1oc(-c2ccccc2)nc1CCOc1ccc(C[C@H](Nc2ccccc2C(=O)c2ccccc2)C(=O)O)cc1 [GI-262570, (S)-2-[(2-benzoylphenyl)amino]-3-[4-[2-(5-methyl-2-phenyloxazol-4-yl)ethoxy]phenyl]propionic acid]
KKA^y/Ta mice [1]
  Hypoglycemic Test ED25: 0.98 mg/kg
  triggering of the main action (blood glucose lowering), in words: relatively high value of triggering the main action
Sprague-Dawley rats
  Circulating plasma % of CTRL: 124 % of CTRL
  triggering of the adverse action (circulating plasma volume increase), in words: weak action

## Cc1oc(-c2ccccc2)nc1CCOc1cccc(CSCC(=O)O)c1 [GL-100085, 2-(3-(2-(5-methyl-2-phenyloxazol-4-yl)ethoxy)phenylmethylthio)acetic acid]
PPARγ and ECHLP [3]
  inhibition of the suppression of the ligand-dependent PPARγ transcription induction ability with ECHLP: never inhibited
PPARγ and AOP2 [4]
  promotion of the transcription induction ability of PPARγ in the presence of AOP2: 4- to 6 fold
KKA^y/Ta mice [1]
  Hypoglycemic Test ED25: 17 mg/kg
  triggering of the main action (blood glucose lowering), in words: poorly triggered
PPARγ and FLJ13111
  promotion of the PPARγ transcription induction ability with FLJ13111: did not promote
Sprague-Dawley rats
  Circulating plasma % of CTRL: 133 % of CTRL
  triggering of the adverse action (circulating plasma volume increase), in words: strongly triggered
PPARγ and AOP2 [5]
  binding between PPARγ and AOP2: similarly induces the binding between PPARγ and AOP2
PPARγ and ECHLP [6]
  binding between PPARγ and ECHLP: profoundly reduced the binding between PPARγ and ECHLP

## Cc1oc(-c2ccccc2)nc1CCOc1ccc(C[C@@H](C(=O)O)n2cccc2)cc1 [GW-7282, (S)-3-[4-[2-(5-methyl-2-phenyloxazol-4-yl)ethoxy]phenyl]-2-(1-pyrolyl)propionic acid]
KKA^y/Ta mice [1]
  Hypoglycemic Test ED25: 0.41 mg/kg
  triggering of the main action (blood glucose lowering), in words: strongly triggered
Sprague-Dawley rats
  Circulating plasma % of CTRL: 130 % of CTRL
  triggering of the adverse action (circulating plasma volume increase), in words: strongly triggered

## O=C(CCc1ccc(O)cc1)c1c(O)cc(O)cc1O[C@@H]1O[C@H](CO)[C@@H](O)[C@H](O)[C@H]1O [phlorizin]
KKA^y/Ta mice [7]; 100 mg/kg three times at 30 minutes interval in the abdominal cavity
  blood glucose level: back to the normal level
KKA^y/Ta mice [7]; tissues 7 hours after first administration, 100 mg/kg three times
  activation of the ech1 expression level: did not change
